≈ marks a conversion by molar mass, not a printed value.
Legend:
[1] = Assessment of cytotoxic properties (MTS assay, 48 h); assay type: cell-based; details: dog, MDCK ECAAC cells, read-out: CC50 (toxic dose of the drug, causing the death of 50% of the monolayer cells)
Protocol: Assessment of cytotoxic properties of asymmetric gossypol derivatives.
In 96-well flat-bottomed test plates, MDCK ECAAC (Sigma cat. ? 85011435) cells are placed at 18,000 cells per well in a volume of 100 μl of complete medium containing 10% fetal calf serum (FCS). Cells are cultured for 24 hours in CO2-incubator at 37° C. Then the liquid medium is removed from the wells of the test plates, leaving the immobilized living cells. Then wells are once washed with the 100 μl of serumless media. The medium is replaced with 100 μl per well of the dilutions of test compounds in support medium with 2% of serum, in 4 replicates. Each plate is prepared with 6 control wells containing 100 μl of fresh support medium without test compounds. The plates are incubated in CO2-incubator at 37° C. for 48 hours. Then liquid contents are removed from the wells, and 100 μl of support medium and 20 μl of MTS (Promega, cat. ? G3581) are added and mixed. The cells are incubated for 3 hours in CO2-incubator at 37° C., and the relative optical density of the solution in each well is measured with a plate spectrophotometer at 492 nm against its absorption at a reference wavelength of 620 nm. The cytotoxicity (CC50) is calculated using the standard method.

[2] = test system: influenza virus A/Puerto Rico/8/34 (H1N1); assay: organism not typed; assay type: cell-based; details: for SI (selectivity index, SI=CC50/IC50): CC50 in MDCK cells / IC50 against influenza A/Puerto Rico/8/34 (H1N1); for IC50: MDCK cells, influenza A/Puerto Rico/8/34 (H1N1), 48 hours, read-out: IC50 (compound concentration, at which 50% of virus titer is inhibited)

SMILES | CC50 at 48 h [1] [µg/mL] | SI (selectivity index, SI=CC50/IC50) [2] | IC50 [2] [µg/mL]
CC1=C(C2=C(C)C(=O)c3c(c(C=O)c(O)c(O)c3C(C)C)C2=O)C(=O)c2cc(O)c(O)c(C(C)C)c2C1=O [II, 6,6′,7,7′-tetrahydroxy-5,5′-diisopropyl-3,3′-dimethyl-1,1′,4,4′-tetraoxo-1,1′,4,4′-tetrahydro-2,2′-binaphthalene-8-carbaldehyde] | 3.8 (≈ 7.33 µM) | 4,75 | 0.8 (≈ 1.54 µM)
Cc1cc2c(C(C)C)c(O)c(O)c(C=O)c2c(O)c1-c1c(C)cc2c(C(C)C)c(O)c(O)c(C=O)c2c1O [Gossypol, gossypol, reference compound] | 4 (≈ 7.71 µM) | 3,24 | 1.2 (≈ 2.31 µM)
Cc1cc2c(C(C)C)c(O)c(O)cc2c(O)c1-c1c(C)cc2c(C(C)C)c(O)c(O)c(C=O)c2c1O (racemic) [I, 1,1′,6,6′,7,7′-hexahydroxy-5,5′-diisopropyl-3,3′-dimethyl-2,2′-binaphthalene-8-carbaldehyde] | 5.5 (≈ 11.2 µM) | 29,36 | 0.2 (≈ 0.408 µM)
